Tests used:
human Gal-3 (hGal-3) = human Gal-3 (hGal-3) (Homo sapiens (Human), UniProt P17931); assay: competitive binding assay: biotinylated hGal-3 binding to microplate-adsorbed asialofetuin (ASF); details: Table 5; read-out: IC50 (Gal-3 inhibition)
Method in brief: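 Peroxidase activity developed with ABTS measures the biotinylated hGal-3 remaining on the asialofetuin-coated surface after competition with test compounds. Incubation ran 3 h at 4 °C, followed by 1 h with streptavidin-peroxidase at 80 ng/mL.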

human Gal-1 (hGal-1) = human Gal-1 (hGal-1) (Homo sapiens (Human), UniProt P09382); assay: competitive binding assay: biotinylated hGal-1 binding to microplate-adsorbed asialofetuin (ASF); details: Table 15; read-out: IC50 (Galectin-1 inhibition)
Method in brief: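 Biotinylated human Gal-1 (300-1000 ng/mL) competes with serially diluted compound for binding to ASF-coated plates, 3 h at 4° C. Bound protein detected with streptavidin-peroxidase and ABTS substrate (spectrophotometric). IC50 given as mean of several measurements.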

human Gal-1 (hGal-1), sequence (P09382 whole entry): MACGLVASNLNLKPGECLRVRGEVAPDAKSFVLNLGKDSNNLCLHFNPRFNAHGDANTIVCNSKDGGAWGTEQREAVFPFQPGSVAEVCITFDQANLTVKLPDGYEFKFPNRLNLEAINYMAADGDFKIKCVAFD
human Gal-3 (hGal-3), sequence (P17931 whole entry): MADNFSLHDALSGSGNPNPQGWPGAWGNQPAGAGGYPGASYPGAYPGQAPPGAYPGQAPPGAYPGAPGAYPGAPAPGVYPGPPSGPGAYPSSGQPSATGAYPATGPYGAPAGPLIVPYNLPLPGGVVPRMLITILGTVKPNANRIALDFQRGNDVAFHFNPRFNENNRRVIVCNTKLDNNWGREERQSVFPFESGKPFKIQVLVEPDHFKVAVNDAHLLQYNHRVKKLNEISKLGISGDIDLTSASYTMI

Substance | IC50 (human Gal-3 (hGal-3)) [µM] | IC50 (human Gal-1 (hGal-1)) [µM]
(2S,3R,4S,5R,6R)-2-(((S)-((R)-4-Hydroxy-2,2-dimethyltetrahydro-2H-pyran-4-yl)(2-(trifluoromethyl)phenyl)methyl)thio)-6-(hydroxymethyl)-4-(4-(3,4,5-trifluorophenyl)-1H-1,2,3-triazol-1-yl)tetrahydro-2H-pyran-3,5-diol [Example 2.43.102SR.] | 3.9 | 55
(2S,3R,4S,5R,6R)-2-(((S)-((R)-4-Hydroxy-2,2-dimethyltetrahydro-2H-pyran-4-yl)(o-tolyl)methyl)thio)-6-(hydroxymethyl)-4-(4-(3,4,5-trifluorophenyl)-1H-1,2,3-triazol-1-yl)tetrahydro-2H-pyran-3,5-diol [Example 2.43.112SR.] | 4.9 | 10.9
(2S,3R,4S,5R,6R)-2-(((S)-((S)-4-Hydroxy-2,2-dimethyltetrahydro-2H-pyran-4-yl)(2-(trifluoromethyl)phenyl)methyl)thio)-6-(hydroxymethyl)-4-(4-(3,4,5-trifluorophenyl)-1H-1,2,3-triazol-1-yl)tetrahydro-2H-pyran-3,5-diol [Example 2.43.102SS.] | 3.92 | 69.5
(2S,3R,4S,5R,6R)-2-(((S)-((S)-4-Hydroxy-2,2-dimethyltetrahydro-2H-pyran-4-yl)(o-tolyl)methyl)thio)-6-(hydroxymethyl)-4-(4-(3,4,5-trifluorophenyl)-1H-1,2,3-triazol-1-yl)tetrahydro-2H-pyran-3,5-diol [Example 2.43.112SS.] | 7.3 | 19.4

Reference: patent US12404295B2, “(Hetero)aryl-methyl-thio-beta-D-galactopyranoside derivatives” (Idorsia Pharmaceuticals Ltd, priority 2019, dated 2025)
